Experimental findings from patent US20100056516A1 (priority 2006, published 2010) are described below.

Experiment [1] has as its system HXB2 virus. Briefly: microbe, parasite or virus in culture. It is filed as cell-based, HIV. To be noted: Human immunodeficiency virus 1, HXB2, HeLaP4-2, read-out: antiviral IC50 (SCIA-B). An outline of the steps:
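Single-cycle infectivity assay in HeLa P4-2 cells measuring inhibition of acute HIV infection, using HXB2 virus.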

Experiment [2] concerns the target HIV integrase (Human immunodeficiency virus type 1 group M subtype B, UniProt P04585). Kind of experiment: integrase strand transfer assay (STA). It is filed as biochemical. The conditions noted are these: integrase strand transfer; read-out: IC50 in the STA assay.

Some results are limits rather than exact numbers.

What is called IC50 is the concentration that inhibits the measured activity by half. On to `O=c1cc(Nc2ccccc2-c2ccccc2)c2cccnc2n1O` [Example 104, 4-(Biphenyl-2-ylamino)-1-hydroxy-1,8-naphthyridin-2(1H)-one], for which the half-maximal inhibitory concentration (IC50) in experiment [1] is less than 100 µM; in experiment [2] it was less than 50 µM.

On to `O=c1cc(Nc2cccc(-c3ccccc3)c2)c2cccnc2n1O` [Example 105, 4-(Biphenyl-3-ylamino)-1-hydroxy-1,8-naphthyridin-2(1H)-one], for which the IC50 in experiment [1] was less than 100 µM; in experiment [2], less than 50 µM.

For `O=c1cc(NC(CN2CCOCC2)c2ccccc2)c2cccnc2n1O` (stereo not drawn) [Example 107, 1-Hydroxy-4-[(2-morpholin-4-yl-1-phenylethyl)amino]-1,8-naphthyridin-2(1H)-one], the IC50 was less than 100 µM in experiment [1] and less than 50 µM in experiment [2].

Consider `O=c1cc(NC2CCN(Cc3ccccc3)CC2)c2cccnc2n1O` [Example 108, 4-[(1-Benzylpiperidin-4-yl)amino]-1-hydroxy-1,8-naphthyridin-2(1H)-one], for which the results for the half-inhibitory concentration (IC50) in experiment [1] and in experiment [2] were less than 100 µM and less than 50 µM, respectively.

In the case of `CCOC(=O)N1CCC(Nc2cc(=O)n(O)c3ncccc23)CC1` [Example 109, Ethyl 4-[(1-hydroxy-2-oxo-1,2-dihydro-1,8-naphthyridin-4-yl)amino]piperidine-1-carboxylate], the IC50 in experiment [1] is less than 100 µM; in experiment [2] it was less than 50 µM.

Regarding `O=c1cc(NCC(c2ccccc2)N2CCOCC2)c2cccnc2n1O` (stereo not drawn) [Example 110, 1-Hydroxy-4-[(2-morpholin-4-yl-2-phenylethyl)amino]-1,8-naphthyridin-2(1H)-one], the IC50 is less than 100 µM in experiment [1] and less than 50 µM in experiment [2].

In the case of `O=c1cc(NC2CCN(Cc3ccccc3)C2)c2cccnc2n1O` (stereo not drawn) [Example 112, 4-[(1-Benzylpyrrolidin-3-yl)amino]-1-hydroxy-1,8-naphthyridin-2(1H)-one], the 50% inhibitory concentration (IC50) in experiment [1] is less than 100 µM; in experiment [2] it was less than 50 µM.

For `O=c1cc(N[C@@H]2CCN(Cc3ccccc3)C2)c2cccnc2n1O` [Example 113, 4-{[(3R)-1-Benzylpyrrolidin-3-yl]amino}-1-hydroxy-1,8-naphthyridin-2(1H)-one], the results for the IC50 in experiment [1] and in experiment [2] were less than 100 µM and less than 50 µM, respectively.

For the compound `O=c1cc(N[C@H]2CCN(Cc3ccccc3)C2)c2cccnc2n1O` [Example 114, 4-{[(3S)-1-Benzylpyrrolidin-3-yl]amino}-1-hydroxy-1,8-naphthyridin-2(1H)-one], the IC50 in experiment [1] is less than 100 µM; in experiment [2], less than 50 µM.

As for `CN(Cc1cccc(Cn2cncn2)c1)c1cc(=O)n(O)c2ncccc12` [Example 116], the IC50 was less than 100 µM in experiment [1] and less than 50 µM in experiment [2].

As for `O=c1cc(N2CCC[C@@H]2CF)c2cccnc2n1O` [Example 117, 4-[(2R)-2-(fluoromethyl)pyrrolidin-1-yl]-1-hydroxy-1,8-naphthyridin-2(1H)-one], the IC50 is less than 100 µM in experiment [1] and less than 50 µM in experiment [2].

On to `O=c1cc(N2CCCC(F)C2)c2cccnc2n1O` (stereo not drawn) [Example 118, 4-(3-fluoropiperidin-1-yl)-1-hydroxy-1,8-naphthyridin-2(1H)-one], for which the figures for the IC50 in experiment [1] and in experiment [2] were less than 100 µM and less than 50 µM, respectively.

As to `O=c1cc(N2CCc3ccccc3C2)c2cccnc2n1O` [Example 119, 4-(3,4-dihydroisoquinolin-2(1H)-yl)-1-hydroxy-1,8-naphthyridin-2(1H)-one], the concentration for half-maximal inhibition (IC50) is less than 100 µM in experiment [1] and less than 50 µM in experiment [2].

Take `N#Cc1ccc2c(c1)CN(c1cc(=O)n(O)c3ncccc13)CC2` [Example 120, 2-(1-hydroxy-2-oxo-1,2-dihydro-1,8-naphthyridin-4-yl)-1,2,3,4-tetrahydroisoquinoline-7-carbonitrile]: the IC50 in experiment [1] was less than 100 µM; in experiment [2] it was less than 50 µM.

Take `COC(=O)c1ccc2c(c1)CN(c1cc(=O)n(O)c3ncccc13)CC2` [Example 122, 4-[7-(methoxycarbonyl)-3,4-dihydroisoquinolin-2(1H)-yl]-1-hydroxy-1,8-naphthyridin-2(1H)-one]: the IC50 in experiment [1] is less than 100 µM; in experiment [2] it was less than 50 µM.

Turning to `C[C@@H](Nc1cc(=O)n(O)c2ncccc12)c1ccccc1` [Example 125, 1-hydroxy-4-{[(1R)-1-phenylethyl]amino}-1,8-naphthyridin-2(1H)-one], the results for the concentration for half-maximal inhibition (IC50) in experiment [1] and in experiment [2] were less than 100 µM and less than 50 µM, respectively.

On to `O=c1cc(NCc2ccccc2)c2cccnc2n1O` [Example 126, 4-(benzylamino)-1-hydroxy-1,8-naphthyridin-2(1H)-one], for which the IC50 in experiment [1] was less than 100 µM; in experiment [2], less than 50 µM.

Take `CCOC(=O)c1c(Nc2ccccc2)c2cccnc2n(O)c1=O` [Example 127, Ethyl 4-anilino-1-hydroxy-2-oxo-1,2-dihydro-1,8-naphthyridine-3-carboxylate]: the results for the IC50 in experiment [1] and in experiment [2] were less than 100 µM and less than 50 µM, respectively.

Take `CCOC(=O)c1c(NCc2ccccc2)c2cccnc2n(O)c1=O` [Example 128, Ethyl 4-(benzylamino)-1-hydroxy-2-oxo-1,2-dihydro-1,8-naphthyridine-3-carboxylate]: the IC50 is less than 100 µM in experiment [1] and less than 50 µM in experiment [2].

Regarding `CCOC(=O)c1c(N[C@@H](CO)c2ccccc2)c2cccnc2n(O)c1=O` [Example 129, Ethyl 1-hydroxy-4-{[(1R)-2-hydroxy-1-phenylethyl]amino}-2-oxo-1,2-dihydro-1,8-naphthyridine-3-carboxylate], the figures for the IC50 in experiment [1] and in experiment [2] were less than 100 µM and less than 50 µM, respectively.

Turning to `CN(Cc1ccccc1)c1cc(=O)n(O)c2ncccc12` [Example 130, 4-[benzyl(methyl)amino]-1-hydroxy-1,8-naphthyridin-2(1H)-one], the half-maximal inhibitory concentration (IC50) in experiment [1] is less than 100 µM; in experiment [2] it was less than 50 µM.

With `O=c1cc(N2CCN(c3ccccc3)CC2)c2cccnc2n1O` [Example 131, 1-hydroxy-4-(4-phenylpiperazin-1-yl)-1,8-naphthyridin-2(1H)-one], the results for the concentration for half-maximal inhibition (IC50) in experiment [1] and in experiment [2] were less than 100 µM and less than 50 µM, respectively.

`O=c1cc(NCCc2ccccc2)c2cccnc2n1O` [Example 132, 1-hydroxy-4-[(2-phenylethyl)amino]-1,8-naphthyridin-2(1H)-one]: the 50% inhibitory concentration (IC50) in experiment [1] is less than 100 µM; in experiment [2] it was less than 50 µM.

`O=c1cc(N2CCC(Cc3ccccc3)CC2)c2cccnc2n1O` [Example 133, 4-(4-benzylpiperidin-1-yl)-1-hydroxy-1,8-naphthyridin-2(1H)-one]: the results for the IC50 in experiment [1] and in experiment [2] were less than 100 µM and less than 50 µM, respectively.

Take `O=c1cc(N2CCN(Cc3ccccc3)CC2)c2cccnc2n1O` [Example 136, 4-(4-benzylpiperazin-1-yl)-1-hydroxy-1,8-naphthyridin-2(1H)-one]: the values for the IC50 in experiment [1] and in experiment [2] were less than 100 µM and less than 50 µM, respectively.

Take `O=c1cc(N2CCC(N3CCOCC3)CC2)c2cccnc2n1O` [Example 138, 1-hydroxy-4-[4-(4-morpholinyl)-1-piperidinyl]-1,8-naphthyridin-2(1H-one)]: the values for the IC50 in experiment [1] and in experiment [2] were less than 100 µM and less than 50 µM, respectively.

Regarding `O=c1cc(Nc2ccccc2N2CCCCC2)c2cccnc2n1O` [Example 139, 1-hydroxy-4-{[2-(1-piperidinyl)pheny]amino}-1,8-naphthyridin-2(1H-one)], the half-inhibitory concentration (IC50) in experiment [1] was less than 100 µM; in experiment [2] it was less than 50 µM.

For the compound `O=c1cc(NCc2ccccc2Cl)c2cccnc2n1O` [Example 141, 4-[(2-chlorobenzyl)amino]-1-hydroxy-1,8-naphthyridin-2(1H-one)], the half-inhibitory concentration (IC50) is less than 100 µM in experiment [1] and less than 50 µM in experiment [2].

With `Cc1ccc(CNc2cc(=O)n(O)c3ncccc23)cc1` [Example 143, 1-hydroxy-4-[(4-methylbenzyl)amino]-1,8-naphthyridin-2(1H-one)], the IC50 in experiment [1] was less than 100 µM; in experiment [2] it was less than 50 µM.

For the compound `O=c1cc(N2CCCC(CN3CCOCC3)C2)c2cccnc2n1O` (stereo not drawn) [Example 144, 1-hydroxy-4-[3-(4-morpholinylmethyl)-1-piperidinyl]-1,8-naphthyridin-2(1H-one)], the results for the half-inhibitory concentration (IC50) in experiment [1] and in experiment [2] were less than 100 µM and less than 50 µM, respectively.

As to `COc1cccc(CNc2cc(=O)n(O)c3ncccc23)c1` [Example 145, 1-hydroxy-4-[(3-methoxybenzyl)amino]-1,8-naphthyridin-2(1H-one)], the concentration for half-maximal inhibition (IC50) in experiment [1] was less than 100 µM; in experiment [2], less than 50 µM.

`O=c1cc(NCc2cccc(F)c2)c2cccnc2n1O` [Example 146, 4-[(3-fluorobenzyl)amino]-1-hydroxy-1,8-naphthyridin-2(1H-one)]: the IC50 in experiment [1] is less than 100 µM; in experiment [2], less than 50 µM.

For the compound `CN1CCN(c2cc(=O)n(O)c3ncccc23)CC1=O` [Example 148, 1-hydroxy-4-(4-methyl-3-oxo-1-piperazinyl)-1,8-naphthyridin-2 (1H-one)], the concentration for half-maximal inhibition (IC50) is less than 100 µM in experiment [1] and less than 50 µM in experiment [2].

With `O=c1cc(NCc2ccc(F)cc2)c2cccnc2n1O` [Example 152], the values for the IC50 in experiment [1] and in experiment [2] were less than 100 µM and less than 50 µM, respectively.

Regarding `O=c1cc(NCc2cccc(CN3CCCCC3)c2)c2cccnc2n1O` [Example 153], the IC50 in experiment [1] is less than 100 µM; in experiment [2], less than 50 µM.

As to `O=c1cc(NCc2ccccc2F)c2cccnc2n1O` [Example 155, 4-[(2-fluorobenzyl)amino]-1-hydroxy-1,8-naphthyridin-2(1H-one)], the values for the IC50 in experiment [1] and in experiment [2] were less than 100 µM and less than 50 µM, respectively.

In the case of `CC(C1CCN(c2cc(=O)n(O)c3ncccc23)CC1)N1CCOCC1` (stereo not drawn) [Example 156, 1-hydroxy-4-{4-[1-(4-morpholinyl)ethyl]-1-piperidinyl}-1,8-naphthyridin-2(1H-one)], the results for the half-maximal inhibitory concentration (IC50) in experiment [1] and in experiment [2] were less than 100 µM and less than 50 µM, respectively.

As for `CC(Nc1cc(=O)n(O)c2ncccc12)c1ccccc1` (stereo not drawn) [Example 157, 1-hydroxy-4-[(1-phenylethyl)amino]-1,8-naphthyridin-2(1H-one)], the IC50 was less than 100 µM in experiment [1] and less than 50 µM in experiment [2].

As for `NCc1cccc(CNc2cc(=O)n(O)c3ncccc23)c1` [Example 159, 4-{[3-(aminomethyl)benzyl]amino}-1-hydroxy-1,8-naphthyridin-2(1H-one)], the 50% inhibitory concentration (IC50) is less than 100 µM in experiment [1] and less than 50 µM in experiment [2].
